Measurements reported in patent US20230322815A1, “NOVEL COMPOUNDS AND THERAPEUTIC USES THEREOF” (University of Huddersfield, priority 2020, published 2023).
“Also recorded” adds a separate entry of the source.

Experiments:
chick embryo = assay: Embryonic toxicity, HT29 in ovo study; assay type: in vivo, chick (White Leghorn); details: for % Alive / % Dead / Alive (embryos at E18) / Dead (embryos at E18): HT29 study; for embryo tolerability: dose escalation showing no increased embryonic toxicity
Description: 10^6 tumor cells (H460, HT29 or HCT116) were grafted onto the upper chorioallantoic membrane (CAM) of the developing chick embryo on embryonic day 9 (E9). Access to the upper CAM was through a small hole drilled through the eggshell of fertilized White Leghorn eggs (into the air sac) on E9 (15 eggs per experimental group).
100 μl of freshly prepared experimental compound, vehicle control or standard-of-care (SoC) drug at their working concentrations were pipetted onto the tumor graft at E11, E13, E15 and E17. On day E18, the upper CAM (with tumor) was removed, washed by PBS buffer and then directly transferred in PFA (fixation for 48 hrs). After that, tumors were carefully cut away from normal CAM tissue and weighed.
Embryonic viability was checked daily. The number of dead embryos was also counted on E18, to evaluate treatment-induced embryo toxicity.

140 human kinases = assay: Cell-free screen of 140 kinases (33P ATP, Premier Screen); assay type: biochemical; details: 10 μM complex
Description: FIG. 9. Effects of [L2Zn3]^6+ and [L2Cu3]^6+ on the activity of purified human kinases. a,b, Percentage inhibition of the indicated kinases by [L2Zn3]^6+ (a) and [L2Cu3]^6+ (b) respectively at a concentration of 10 μM; full results are presented in the ESI. c,d, Kinases whose activity is stimulated by [L2Zn3]^6+ (c) or [L2Cu3]^6+ (d) complexes. e,f, Kinome map showing kinases inhibited (red) or stimulated (green) by [L2Zn3]^6+ (e) or [L2Cu3]^6+ (f). III ustration reproduced courtesy of Cell Signalling Technology Inc (www.cellsignal.com)
FIG. 16. The effect of [L2Zn3]^6+ and [L2Cu3]^6+ on the activity of recombinant human kinases. The compounds were submitted to the MRC Protein Phosphorylation and Ubiquitination Unit International Centre for Kinase Profiling (University of Dundee) and tested at a concentration of 10 μM against 140 human kinases (Premier Screen).
Given the ability of the Zn^2+ complex to dephosphorylate amino acids serine, tyrosine and threonine (FIG. 6) and the Cu^2+ complex to bind phenyl phosphate (FIG. 3), it was examined whether the complexes affect the activity of kinases. This was assessed in a cell-free screen of 140 kinases using purified recombinant human kinases and substrate peptides incubated in the presence of ^33P ATP and 10 μM complex or solvent control. […]

HCT116 tumors = assay: Chick embryo chorioallantoic membrane (CAM) assay, in ovo efficacy; assay type: in vivo, human tumor cells on chick embryo CAM; details: for doses giving statistically significant regression of tumor growth (mean tumor weight at E18): L2Zn3 70.5, 141, 282 μM, L2Cu3 75, 150, 300 μM
Description: FIG. 24. Activity of [L2Cu3]^6+ and [L2Zn3]^6+ against primary HCT116 tumors. The results presented represent the mean tumour weight ±SEM following treatment at 3 different doses of [L2Cu3]^6+ and [L2Zn3]^6+: L2Zn3 [1]=70.5 μM, L2Zn3 [2]=141 μM, L2Zn3 [3]=282 μM; L2Cu3 [1]=75 μM, L2Cu3[2]=150 μM, L2Cu3[3]=300 μM. SoC doxorubicin. Statistical analysis by one way ANOVA (*): 0.05≥p value >0.01; (**): 0.01≥p value >0.001; (***): 0.001≥p value; (****): 0.0001≥p value. Number per experimental group n=12-15.
FIG. 25. Evaluation of the effects of [L2Cu3]^6+ and [L2Zn3]^6+ on primary HCT116 metastasis to the lower CAM. Relative ALU expression (relative to chicken GAPDH) as a quantitive marker of metastasis of human cells to the lower CAM. Relative expression ±SEM. L2Zn3 [1]=70.5 μM, L2Zn3 [2]=141 μM, L2Zn3 [3]=282 μM; L2Cu3 [1]=75 μM, L2Cu3[2]=150 μM, L2Cu3[3]=300 μM. SoC doxorubicin. Number per experimental group n=7-8.
[L2Cu3]^6+ and [L2Zn3]^6+ were evaluated at three different doses for in ovo anti-cancer activity, toxicity and anti-metastatic activity against tumors initiated from three different human cancer cell line models (H460, HT29, HCT116), in the chick embryo chorioallantoic membrane (CAM) assay.
Each compound was provided to the contract research organisation (CRO) Inovotion (La Tronche, France) conducting the in ovo study, as a powder pre-weighed in single vials (2 equivalents of ligand, 3 equivalents of metal; and stored at room temperature). Before use, this was then dissolved in DMSO to 50 mM to generate a stock solution and further freshly diluted in RPM11640 or McCoys aqueous cell culture media for administration.
A standard of care (SoC) drug for the particular tumour type was tested concurrently as a comparative control for in vivo efficacy and toxicity evaluation. […]
On day E18, a 1 cm^2 portion of the lower CAM was collected (n=8 per group), stored at −20° C. and later processed to extract DNA. Samples were analysed for human genomic DNA (qPCR for Alu sequences) as a quantitative marker of tumor metastasis to the lower CAM.

[1] = dose [1]: L2Zn3 26.6 μM, L2Cu3 23.8 μM
[2] = dose [2]: L2Zn3 53.2 μM, L2Cu3 65.7 μM
[3] = dose [3]: L2Zn3 106.4 μM, L2Cu3 131.46 μM

Structure (SMILES)	% Alive (chick embryo; [1]) [%]	% Dead (chick embryo; [1]) [%]	Alive (embryos at E18) (chick embryo; [1])	Dead (embryos at E18) (chick embryo; [1])	% Alive (chick embryo; [2]) [%]	% Dead (chick embryo; [2]) [%]	Alive (embryos at E18) (chick embryo; [2])	Dead (embryos at E18) (chick embryo; [2])	% Alive (chick embryo; [3]) [%]	% Dead (chick embryo; [3]) [%]	Alive (embryos at E18) (chick embryo; [3])	Dead (embryos at E18) (chick embryo; [3])	embryo tolerability (chick embryo)	inhibition of the most potently inhibited kinases (140 human kinases) [%]	doses giving statistically significant regression of tumor growth (mean tumor weight at E18) (HCT116 tumors)	HCT116 metastatic load in the lower CAM (qPCR for Alu sequences) (HCT116 tumors; all three doses, comparable to SoC doxorubicin)
[Zn+2].[Zn+2].[Zn+2].c1ccc(-c2csc(NCCN(CCNc3nc(-c4ccccn4)cs3)CCNc3nc(-c4ccccn4)cs3)n2)nc1.c1ccc(-c2csc(NCCN(CCNc3nc(-c4ccccn4)cs3)CCNc3nc(-c4ccccn4)cs3)n2)nc1 [[L2Zn3]^6+]	85.71	14.29	12	2	92.86	7.14	13	1	92.86	7.14	13	1	well tolerated	~100	the highest two doses tested	Decreases in HCT116 metastatic load; also recorded: strong regression tendency
[Cu+2].[Cu+2].[Cu+2].c1ccc(-c2csc(NCCN(CCNc3nc(-c4ccccn4)cs3)CCNc3nc(-c4ccccn4)cs3)n2)nc1.c1ccc(-c2csc(NCCN(CCNc3nc(-c4ccccn4)cs3)CCNc3nc(-c4ccccn4)cs3)n2)nc1 [[L2Cu3]^6+]	71.43	28.57	10	4	85.71	14.29	12	2	92.31	7.69	12	1	well tolerated	~100	all three tested doses	–
